{"source": "PubChem BioAssay (NCI)", "assay_in_all_cases": "growth of human tumour cells (NCI), 48 h", "key": {"MCF7 breast": {"tested_on": "MCF7 breast"}, "NCI-H23 lung": {"tested_on": "NCI-H23 lung"}, "T-47D breast": {"tested_on": "T-47D breast"}, "SK-MEL-28 melanoma": {"tested_on": "SK-MEL-28 melanoma"}, "HCT-116 colon": {"tested_on": "HCT-116 colon"}, "M14 melanoma": {"tested_on": "M14 melanoma"}, "MALME-3M melanoma": {"tested_on": "MALME-3M melanoma"}, "OVCAR-4 ovarian": {"tested_on": "OVCAR-4 ovarian"}, "MOLT-4 leukemia": {"tested_on": "MOLT-4 leukemia"}, "CAKI-1 renal": {"tested_on": "CAKI-1 renal"}, "MDA-MB-231 breast": {"tested_on": "MDA-MB-231 breast"}, "SNB-75 CNS": {"tested_on": "SNB-75 CNS"}, "TK-10 renal": {"tested_on": "TK-10 renal"}, "EKVX NSCLC": {"tested_on": "EKVX NSCLC"}, "PC-3 prostate": {"tested_on": "PC-3 prostate"}, "KM12 colon": {"tested_on": "KM12 colon"}, "HOP-92 NSCLC": {"tested_on": "HOP-92 NSCLC"}, "LOX IMVI melanoma": {"tested_on": "LOX IMVI melanoma"}, "RXF 393 renal": {"tested_on": "RXF 393 renal"}, "UO-31 renal": {"tested_on": "UO-31 renal"}, "NCI/ADR-RES ovarian": {"tested_on": "NCI/ADR-RES ovarian"}, "OVCAR-8 ovarian": {"tested_on": "OVCAR-8 ovarian"}, "NCI-H226 lung": {"tested_on": "NCI-H226 lung"}, "ACHN renal": {"tested_on": "ACHN renal"}, "SF-539 CNS": {"tested_on": "SF-539 CNS"}, "UACC-257 melanoma": {"tested_on": "UACC-257 melanoma"}, "SF-268 CNS": {"tested_on": "SF-268 CNS"}, "COLO 205 colon": {"tested_on": "COLO 205 colon"}, "A549 NSCLC": {"tested_on": "A549 NSCLC"}, "OVCAR-3 ovarian": {"tested_on": "OVCAR-3 ovarian"}, "HT29 colon": {"tested_on": "HT29 colon"}, "IGROV1 ovarian": {"tested_on": "IGROV1 ovarian"}, "K-562 leukemia": {"tested_on": "K-562 leukemia"}, "SK-OV-3 ovarian": {"tested_on": "SK-OV-3 ovarian"}, "MDA-MB-435": {"tested_on": "MDA-MB-435"}, "BT-549 breast": {"tested_on": "BT-549 breast"}, "NCI-H460 lung": {"tested_on": "NCI-H460 lung"}, "NCI-H522 lung": {"tested_on": "NCI-H522 lung"}, "UACC-62 melanoma": {"tested_on": "UACC-62 melanoma"}, "786-0 renal": {"tested_on": "786-0 renal"}, "SW-620 colon": {"tested_on": "SW-620 colon"}, "U251 CNS": {"tested_on": "U251 CNS"}, "SNB-19 CNS": {"tested_on": "SNB-19 CNS"}, "HS 578T breast": {"tested_on": "HS 578T breast"}, "SK-MEL-5 melanoma": {"tested_on": "SK-MEL-5 melanoma"}, "HCT-15 colon": {"tested_on": "HCT-15 colon"}, "CCRF-CEM leukemia": {"tested_on": "CCRF-CEM leukemia"}, "SK-MEL-2 melanoma": {"tested_on": "SK-MEL-2 melanoma"}, "RPMI-8226 leukemia": {"tested_on": "RPMI-8226 leukemia"}, "HOP-62 NSCLC": {"tested_on": "HOP-62 NSCLC"}, "DU-145 prostate": {"tested_on": "DU-145 prostate"}, "SN12C renal": {"tested_on": "SN12C renal"}, "A498 renal": {"tested_on": "A498 renal"}, "SF-295 CNS": {"tested_on": "SF-295 CNS"}}, "note": "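48-hour exposure; five concentrations; linearly interpolated endpoints. Definition used: TGI = concentration required for complete inhibition of growth.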", "data": [{"smiles": "CSC(=S)NN=C1CCCCC1", "values": [{"measurement": "TGI", "setting": "MCF7 breast", "result": "> 100", "unit": "µM"}, {"measurement": "TGI", "setting": "NCI-H23 lung", "result": "> 100", "unit": "µM"}, {"measurement": "TGI", "setting": "T-47D breast", "result": "> 100", "unit": "µM"}, {"measurement": "TGI", "setting": "SK-MEL-28 melanoma", "result": "> 100", "unit": "µM"}, {"measurement": "TGI", "setting": "HCT-116 colon", "result": "> 100", "unit": "µM"}, {"measurement": "TGI", "setting": "M14 melanoma", "result": 38.7, "unit": "µM"}, {"measurement": "TGI", "setting": "MALME-3M melanoma", "result": 44.8, "unit": "µM"}, {"measurement": "TGI", "setting": "OVCAR-4 ovarian", "result": "> 100", "unit": "µM"}, {"measurement": "TGI", "setting": "MOLT-4 leukemia", "result": 40.8, "unit": "µM"}, {"measurement": "TGI", "setting": "CAKI-1 renal", "result": 65.2, "unit": "µM"}, {"measurement": "TGI", "setting": "MDA-MB-231 breast", "result": "> 100", "unit": "µM"}, {"measurement": "TGI", "setting": "SNB-75 CNS", "result": "> 100", "unit": "µM"}, {"measurement": "TGI", "setting": "TK-10 renal", "result": 89.7, "unit": "µM"}, {"measurement": "TGI", "setting": "EKVX NSCLC", "result": "> 100", "unit": "µM"}, {"measurement": "TGI", "setting": "PC-3 prostate", "result": "> 100", "unit": "µM"}, {"measurement": "TGI", "setting": "KM12 colon", "result": "> 100", "unit": "µM"}, {"measurement": "TGI", "setting": "HOP-92 NSCLC", "result": "> 100", "unit": "µM"}, {"measurement": "TGI", "setting": "LOX IMVI melanoma", "result": 53.1, "unit": "µM"}, {"measurement": "TGI", "setting": "RXF 393 renal", "result": "> 100", "unit": "µM"}, {"measurement": "TGI", "setting": "UO-31 renal", "result": "> 100", "unit": "µM"}, {"measurement": "TGI", "setting": "NCI/ADR-RES ovarian", "result": 60.6, "unit": "µM"}, {"measurement": "TGI", "setting": "OVCAR-8 ovarian", "result": "> 100", "unit": "µM"}, {"measurement": "TGI", "setting": "NCI-H226 lung", "result": 42.4, "unit": "µM"}, {"measurement": "TGI", "setting": "ACHN renal", "result": 56, "unit": "µM"}, {"measurement": "TGI", "setting": "SF-539 CNS", "result": 67.7, "unit": "µM"}, {"measurement": "TGI", "setting": "UACC-257 melanoma", "result": "> 100", "unit": "µM"}, {"measurement": "TGI", "setting": "SF-268 CNS", "result": "> 100", "unit": "µM"}, {"measurement": "TGI", "setting": "COLO 205 colon", "result": "> 100", "unit": "µM"}, {"measurement": "TGI", "setting": "A549 NSCLC", "result": "> 100", "unit": "µM"}, {"measurement": "TGI", "setting": "OVCAR-3 ovarian", "result": "> 100", "unit": "µM"}, {"measurement": "TGI", "setting": "HT29 colon", "result": "> 100", "unit": "µM"}, {"measurement": "TGI", "setting": "IGROV1 ovarian", "result": 43.3, "unit": "µM"}, {"measurement": "TGI", "setting": "K-562 leukemia", "result": 83.2, "unit": "µM"}, {"measurement": "TGI", "setting": "SK-OV-3 ovarian", "result": "> 100", "unit": "µM"}, {"measurement": "TGI", "setting": "MDA-MB-435", "result": "> 100", "unit": "µM"}, {"measurement": "TGI", "setting": "BT-549 breast", "result": "> 100", "unit": "µM"}, {"measurement": "TGI", "setting": "NCI-H460 lung", "result": "> 100", "unit": "µM"}, {"measurement": "TGI", "setting": "NCI-H522 lung", "result": 88.7, "unit": "µM"}, {"measurement": "TGI", "setting": "UACC-62 melanoma", "result": 38, "unit": "µM"}, {"measurement": "TGI", "setting": "786-0 renal", "result": "> 100", "unit": "µM"}, {"measurement": "TGI", "setting": "SW-620 colon", "result": "> 100", "unit": "µM"}, {"measurement": "TGI", "setting": "U251 CNS", "result": "> 100", "unit": "µM"}, {"measurement": "TGI", "setting": "SNB-19 CNS", "result": "> 100", "unit": "µM"}, {"measurement": "TGI", "setting": "HS 578T breast", "result": "> 100", "unit": "µM"}, {"measurement": "TGI", "setting": "SK-MEL-5 melanoma", "result": 37.7, "unit": "µM"}, {"measurement": "TGI", "setting": "HCT-15 colon", "result": "> 100", "unit": "µM"}, {"measurement": "TGI", "setting": "CCRF-CEM leukemia", "result": 87.8, "unit": "µM"}, {"measurement": "TGI", "setting": "SK-MEL-2 melanoma", "result": "> 100", "unit": "µM"}, {"measurement": "TGI", "setting": "RPMI-8226 leukemia", "result": 0.647, "unit": "µM"}, {"measurement": "TGI", "setting": "HOP-62 NSCLC", "result": "> 100", "unit": "µM"}, {"measurement": "TGI", "setting": "DU-145 prostate", "result": "> 100", "unit": "µM"}, {"measurement": "TGI", "setting": "SN12C renal", "result": 84.9, "unit": "µM"}, {"measurement": "TGI", "setting": "A498 renal", "result": "> 100", "unit": "µM"}, {"measurement": "TGI", "setting": "SF-295 CNS", "result": "> 100", "unit": "µM"}]}]}
